Results on six molecules are retold here after patent US9783586B2, “Inhibitors of the linear ubiquitin chain assembly complex (LUBAC) and related methods” (The United States of America, as represented by the …, priority 2013, dated 2017).

What all share (format): cell-based
For one experiment, the target named is T1, RBCK1/RNF31 interaction (Homo sapiens, UniProt Q9BYM8).
T1 construct: expressed in transfected cells; host or cells: HEK-293
T1 sequence (Q9BYM8 1-510): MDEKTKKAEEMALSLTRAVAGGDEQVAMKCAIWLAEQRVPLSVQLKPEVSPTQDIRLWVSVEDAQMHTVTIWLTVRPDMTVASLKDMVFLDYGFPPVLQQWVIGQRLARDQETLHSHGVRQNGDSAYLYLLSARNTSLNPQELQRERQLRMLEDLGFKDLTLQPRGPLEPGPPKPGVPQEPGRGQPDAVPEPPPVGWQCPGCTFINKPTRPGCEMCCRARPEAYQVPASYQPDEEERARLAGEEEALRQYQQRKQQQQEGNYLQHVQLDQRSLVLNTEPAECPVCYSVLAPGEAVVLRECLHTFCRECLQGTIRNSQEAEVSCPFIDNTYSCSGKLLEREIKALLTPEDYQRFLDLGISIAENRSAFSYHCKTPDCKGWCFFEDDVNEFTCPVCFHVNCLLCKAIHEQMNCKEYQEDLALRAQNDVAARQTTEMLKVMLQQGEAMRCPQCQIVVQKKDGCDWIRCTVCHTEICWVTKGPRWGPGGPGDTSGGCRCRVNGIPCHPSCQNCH
The experiment is described as follows: RBCK1/RNF31 co-immunoprecipitation (LUBAC complex formation) in co-transfected HEK-293 cells. As to conditions: for RBCK1/RNF31 interaction (anti-HA immunoprecipitation, densitometry): HEK-293 cells, 5 μM or 20 μM, 24 hours, relative to DMSO (FIGS. 5, 6); for Interference with LUBAC function: Example 9, tested as described in Example 7 (present tense).

The subject of a further experiment is NF-κB. Description: NF-κB luciferase reporter assay. As to conditions: for Relative NF-κB-luciferase reporter activity: HBL1 ABC DLBCL cells, 5 μM or 20 μM, 2 days, relative to DMSO (FIG. 4); for NF-κB activity: ABC DLBCL cells, Example 10 (FIG. 8A). As to the method: A third experiment was done using a different reporter system for NF-κB activity. HBL1 and TMD8 ABC DLBCL lines cell lines were created with an NF-κB transcriptional reporter by transduction with lentiviral particles containing an inducible NF-κB-responsive luciferase reporter construct (SA Biosciences, Valencia, Calif.) and selected with puromycin. Luciferase activity was measured using the DUAL-LUCIFERASE™ Reporter Assay System (Promega) on a Microtiter Plate Luminometer (Dyn-Ex Technologies, Chantilly, Va.). The transduced HBL and TMD8 cell lines were then transfected with constructs that inducibly express control (SC4) or RNF31 shRNAs described above. Expression of shRNAs was induced using doxycyline, and the luciferase reporter activity in shRNF31 expression cells was measured and normalized relative to control (SC4). Cells were also treated with the specific IKKβ inhibitor (MLN120B) as a positive control. Experiments were done in triplicate, and results are shown in FIG. 2C (error bars indicate SEM).
The ability of these peptides to inhibit NF-κB activity in ABC DLBCL was determined using the NF-κB luciferase reporter assay described above. Negative control cells were treated with dimethyl sulfoxide (DMSO), and positive control cells were treated with Bruton's tyrosine kinase (Btk) inhibitor ibrutinib. […] Cells were treated with peptides at concentrations of 5 μM or 20 μM for 2 days. Relative NF-κB-luciferase reporter activity was normalized and measured relative to control (DMSO-treated) cells. The results of triplicate experiments are shown in FIG. 4 (error bars indicate the SEM).
A general note: Reporter assays use an easily measured gene product as a stand-in for the process of interest.

Another experiment concerns IκBα. Description: IκBα-luciferase reporter assay. To be noted: ABC DLBCL cells, Example 10 (FIG. 8B). The source says:
In a second experiment, HBL1 and TMD8 ABC DLBCL lines were engineered to contain an NF-κB-driven luciferase reporter. Vectors expressing an IκBα-luciferase fusion protein were constructed using Photinus luciferase from pGL3 vector (Promega, Madison, Wis.) as the reporter and Renilla luciferase construct from phRL-TK (Promega) was used for normalization. Stable clones were identified that were responsive to […] (see Lam et al, Clin Cancer Res, 11: 28-40 (2005)). After development with the DUAL-GLO luciferase assay system (Promega), the ratio of IκBα-Photinus to Renilla luminescence was normalized to that in untreated or uninduced cultures. The IκBα assay, which relies on the correlation between NF-κB activity and IKKβ kinase activity, was previously described in Lenz et al, Science, 319: 1676-1679 (2008). In brief, IKKβ kinase phosphorylates IκBα, which leads to degradation of IκBα (an inhibitor of NF-κB) and thereby activates NF-κB.
The engineered cells were transfected with control (SC4) or RNF31 shRNAs under the control of a doxycyline promoter as described in Example 2. Expression of shRNA was induced with doxycyline, and relative amounts of NF-κB Luciferase reporter activity was measured and normalized relative to control (SC4) shRNA. As additional controls, the expression of NF-κB Luciferase reporter activity was measured in cells that were not expressing shRNAs and which were either treated with the specific IKKβ inhibitor (“MLM-120B”) or untreated (“No Rx”). Experiments were done in triplicate and the results are shown in FIG. 2B (error bars indicate standard error of the mean (SEM)).

For the next experiment, the system named is ABC DLBCL cell lines. The experiment is described as follows: MTS cell viability assay, ABC DLBCL. To be noted: ABC DLBCL cells, Example 10 (FIG. 8C). The protocol: ABC and GCB DLBCL cell lines were treated with RNF31 stapled peptides of Table 2 at concentrations of 5 μM or 20 μM for four days. Cell viability was determined using the following MTS assay. Cells were plated in triplicate at a density of 15,000 cells per well in 96-well plates. Cell viability after indicated treatments was assayed by adding 3-(4,5-dimethylthiazol-2-yl)-5-(3-carboxymethoxyphenyl)-2-(4-sulphophenyl)-2H tetrazolium and an electron coupling reagent (phenazine methosulphate from Promega, Madison, Wis.), incubated for 3 hours and measured by the amount of 490 nm absorbance using a 96-well plate reader. The background was subtracted using a media only control. The results of these MTS assays done in triplicate are shown in FIGS. 7A-7D (error bars indicate the SEM), and cell viability is expressed as the fraction of cells remaining after four days treatment, relative to the initial number of cells at the start of treatment (time 0). The results of MTS cell viability assay indicate that amino-terminal cross-linked peptides RNF31-N (SEQ ID NO: 11) and RNF31-NC (SEQ ID NO: 12) were toxic to ABC DLBCL cell lines but had little effect on GCB DLBCL cell lines tested.
A general note: Formazan colour is commonly taken as a measure of viable cells.

Positions of bridges follow the written chain, without caps; N, C: chain ends. Non-standard residues stand in square brackets, D forms with d. Residues, ends and D or L forms follow the SMILES beside them. No end group written: not given here. S5 = C=CCCC[C@](C)(N)C(=O)O; βAla = NCCC(=O)O

Take “Ac-βAla Ser Arg Ala Leu Thr Glu Leu Gln Arg Gln Arg Leu Glu Pro Phe Arg Gln Arg Xaa Trp Asp Ser Xaa-NH2 (Ac-[βAla]SRALTELQRQRLEPFRQR[S5]WDS[S5]-NH2; staple 20-24; SMILES CC(=O)NCCC(=O)N[C@@H](CO)C(=O)N[C@@H](CCCNC(=N)N)C(=O)N[C@@H](C)C(=O)N[C@@H](CC(C)C)C(=O)N[C@H](C(=O)N[C@@H](CCC(=O)O)C(=O)N[C@@H](CC(C)C)C(=O)N[C@@H](CCC(N)=O)C(=O)N[C@@H](CCCNC(=N)N)C(=O)N[C@@H](CCC(N)=O)C(=O)N[C@@H](CCCNC(=N)N)C(=O)N[C@@H](CC(C)C)C(=O)N[C@@H](CCC(=O)O)C(=O)N1CCC[C@H]1C(=O)N[C@@H](Cc1ccccc1)C(=O)N[C@@H](CCCNC(=N)N)C(=O)N[C@@H](CCC(N)=O)C(=O)N[C@@H](CCCNC(=N)N)C(=O)N[C@@]1(C)CCCC=CCCC[C@@](C)(C(N)=O)NC(=O)[C@H](CO)NC(=O)[C@H](CC(=O)O)NC(=O)[C@H](Cc2c[nH]c3ccccc23)NC1=O)[C@@H](C)O) [RNF31-C]”: the “RBCK1/RNF31 interaction (anti-HA immunoprecipitation, densitometry)” value with RBCK1/RNF31 interaction is given as “little if any effect”. The “Relative NF-κB-luciferase reporter activity” value in the experiment on NF-κB is “less of an effect”.
As for SRALTELQRQRLEPFRQRLWDSG [SEQ ID NO:1], in the experiment with NF-κB, the NF-κB activity result is “little or no effect”. The “IκBα activity (IκBα-reporter)” value in the experiment on IκBα is “little or no effect”. For the same molecule, in the experiment with ABC DLBCL cell lines, the “Cell viability (MTS)” value is “little or no effect”.
On to “Ac-βAla Ser Arg Ala Leu Thr Glu Leu Gln Arg Gln Arg Leu Glu Pro Phe Arg Gln Arg Leu Trp Asp Ser-NH2 (Ac-[βAla]SRALTELQRQRLEPFRQRLWDS-NH2; SMILES CC(=O)NCCC(=O)N[C@@H](CO)C(=O)N[C@@H](CCCNC(=N)N)C(=O)N[C@@H](C)C(=O)N[C@@H](CC(C)C)C(=O)N[C@H](C(=O)N[C@@H](CCC(=O)O)C(=O)N[C@@H](CC(C)C)C(=O)N[C@@H](CCC(N)=O)C(=O)N[C@@H](CCCNC(=N)N)C(=O)N[C@@H](CCC(N)=O)C(=O)N[C@@H](CCCNC(=N)N)C(=O)N[C@@H](CC(C)C)C(=O)N[C@@H](CCC(=O)O)C(=O)N1CCC[C@H]1C(=O)N[C@@H](Cc1ccccc1)C(=O)N[C@@H](CCCNC(=N)N)C(=O)N[C@@H](CCC(N)=O)C(=O)N[C@@H](CCCNC(=N)N)C(=O)N[C@@H](CC(C)C)C(=O)N[C@@H](Cc1c[nH]c2ccccc12)C(=O)N[C@@H](CC(=O)O)C(=O)N[C@@H](CO)C(N)=O)[C@@H](C)O) [RNF31-wt]”, for which, in the experiment with RBCK1/RNF31 interaction, the “RBCK1/RNF31 interaction (anti-HA immunoprecipitation, densitometry)” value was “little if any effect”. Further, in the experiment on NF-κB, the NF-κB activity result is reported as “inhibited NF-κB activity” and the “Relative NF-κB-luciferase reporter activity” value was “less of an effect”. For the same molecule, the “IκBα activity (IκBα-reporter)” value with IκBα is listed as “decreased IκBα activity”. For the same molecule, in the experiment on ABC DLBCL cell lines, the “Cell viability (MTS)” value is on record as “decreased cell viability”.
As to `CC(=O)NCCC(=O)N[C@@H](CO)C(=O)N[C@@H](CCCNC(=N)N)C(=O)N[C@@]1(C)CCCC=CCCC[C@@](C)(C(=O)N[C@@H](CCC(N)=O)C(=O)N[C@@H](CCCNC(=N)N)C(=O)N[C@@H](CCC(N)=O)C(=O)N[C@@H](CCCNC(=N)N)C(=O)N[C@@H](CC(C)C)C(=O)N[C@@H](CCC(=O)O)C(=O)N2CCC[C@H]2C(=O)N[C@@H](Cc2ccccc2)C(=O)N[C@@H](CS)C(=O)N[C@@H](CC(C)C)C(=O)N[C@@H](CCCNC(=N)N)C(=O)N[C@@]2(C)CCCC=CCCC[C@@](C)(C(N)=O)NC(=O)[C@H](CO)NC(=O)[C@H](CC(=O)O)NC(=O)[C@H](Cc3c[nH]c4ccccc34)NC2=O)NC(=O)[C@H](CCC(=O)O)NC(=O)[C@H]([C@@H](C)O)NC(=O)[C@H](CC(C)C)NC1=O` [RNF31-NC R2CL, Ac-βAla Ser Arg Xaa Leu Thr Glu Xaa Gln Arg Gln Arg Leu Glu Pro Phe Cys Leu Arg Xaa Trp Asp Ser Xaa-NH2] (Ac-[βAla]SR[S5]LTE[S5]QRQRLEPFCLR[S5]WDS[S5]-NH2; staple 4-8, 20-24), the “Interference with LUBAC function” value on RBCK1/RNF31 interaction is “interfere with LUBAC function”.
Take `CC(=O)NCCC(=O)N[C@@H](CO)C(=O)N[C@@H](CCCNC(=N)N)C(=O)N[C@@]1(C)CCCC=CCCC[C@@](C)(C(=O)N[C@@H](CCC(N)=O)C(=O)N[C@@H](CCCNC(=N)N)C(=O)N[C@@H](CCC(N)=O)C(=O)N[C@@H](CCCNC(=N)N)C(=O)N[C@@H](CC(C)C)C(=O)N[C@@H](CCC(=O)O)C(=O)NCC(=O)N[C@@H](Cc2ccccc2)C(=O)N[C@@H](CCCNC(=N)N)C(=O)N[C@@H](CCC(N)=O)C(=O)N[C@@H](CCCNC(=N)N)C(=O)N[C@@]2(C)CCCC=CCCC[C@@](C)(C(N)=O)NC(=O)[C@H](CO)NC(=O)[C@H](CC(=O)O)NC(=O)[C@H](Cc3c[nH]c4ccccc34)NC2=O)NC(=O)[C@H](CCC(=O)O)NC(=O)[C@H]([C@@H](C)O)NC(=O)[C@H](CC(C)C)NC1=O` [RNF31-NC P2G, Ac-βAla Ser Arg Xaa Leu Thr Glu Xaa Gln Arg Gln Arg Leu Glu Gly Phe Arg Gln Arg Xaa Trp Asp Ser Xaa-NH2] (Ac-[βAla]SR[S5]LTE[S5]QRQRLEGFRQR[S5]WDS[S5]-NH2; staple 4-8, 20-24): at RBCK1/RNF31 interaction, the “Interference with LUBAC function” value is on record as “interfere with LUBAC function”.
Same read-out and setting: to `CC(=O)NCCC(=O)N[C@@H](CO)C(=O)N[C@@H](CCCNC(=N)N)C(=O)N[C@@]1(C)CCCC=CCCC[C@@](C)(C(=O)N[C@@H](CCC(N)=O)C(=O)N[C@@H](CCCNC(=N)N)C(=O)N[C@@H](CCC(N)=O)C(=O)N[C@@H](CCCNC(=N)N)C(=O)N[C@@H](CC(C)C)C(=O)N[C@@H](CCC(=O)O)C(=O)N2CCC[C@H]2C(=O)N[C@@H](Cc2ccccc2)C(=O)N[C@@H](CS)C(=O)N[C@@H](CCC(N)=O)C(=O)N[C@@H](CCCNC(=N)N)C(=O)N[C@@]2(C)CCCC=CCCC[C@@](C)(C(N)=O)NC(=O)[C@H](CO)NC(=O)[C@H](CC(=O)O)NC(=O)[C@H](Cc3c[nH]c4ccccc34)NC2=O)NC(=O)[C@H](CCC(=O)O)NC(=O)[C@H]([C@@H](C)O)NC(=O)[C@H](CC(C)C)NC1=O` [RNF31-NC R2C, Ac-βAla Ser Arg Xaa Leu Thr Glu Xaa Gln Arg Gln Arg Leu Glu Pro Phe Cys Gln Arg Xaa Trp Asp Ser Xaa-NH2] (Ac-[βAla]SR[S5]LTE[S5]QRQRLEPFCQR[S5]WDS[S5]-NH2; staple 4-8, 20-24) belongs “interfere with LUBAC function”.
